Like-named read-outs stand apart in the source and are kept apart here.
How the values were obtained:
JAK2 kinase domain (JH1) = JAK2 kinase domain (JH1) (Homo sapiens (Human), UniProt O60674); assay: JAK2 Radioactive Kinase Assay; assay type: biochemical; conditions: for inhibition at 10 µM: read-out: JAK2 JH1% Inhibition @ 10 μM
Method in brief: (§1)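 Each kinase domain is incubated with test compound at 10 μM. Activity is then measured radiometrically and expressed as percent inhibition relative to uninhibited enzyme.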

[1] = molecular target: human TYK2 (JH2domain-pseudokinase) (Homo sapiens (Human), UniProt P29597); assay: TYK2 JH2 Domain Binding Assay (KINOMEscan)
human TYK2 (JH2domain-pseudokinase), sequence (P29597 556-888): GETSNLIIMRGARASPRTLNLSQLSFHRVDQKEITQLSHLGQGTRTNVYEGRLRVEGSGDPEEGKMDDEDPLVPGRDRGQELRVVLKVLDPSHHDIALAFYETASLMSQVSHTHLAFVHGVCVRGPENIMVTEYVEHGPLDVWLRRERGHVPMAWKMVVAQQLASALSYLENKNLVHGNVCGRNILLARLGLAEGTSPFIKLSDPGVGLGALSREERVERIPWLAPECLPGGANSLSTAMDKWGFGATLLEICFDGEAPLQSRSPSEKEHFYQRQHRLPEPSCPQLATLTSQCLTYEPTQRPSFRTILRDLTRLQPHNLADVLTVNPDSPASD
Method in brief: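 Competition binding of an NFkB-DBD fusion of human TYK2 JH2 (G556–D888), expressed in HEK293 and used as crude extract at <0.1 nM, against immobilized ligand beads; 1 h at room temperature in PBS/Tween/DTT/BSA buffer, 0.9% DMSO.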

Tyk2 kinase domain (DH1) = Tyk2 kinase domain (DH1) (Homo sapiens (Human), UniProt P29597); assay: Tyk2 Radioactive Kinase Assay; assay type: biochemical; conditions: for inhibition at 10 µM: read-out: Tyk2 JH1% Inhibition @ 10 μM
Tyk2 kinase domain (DH1), sequence (P29597 897-1176): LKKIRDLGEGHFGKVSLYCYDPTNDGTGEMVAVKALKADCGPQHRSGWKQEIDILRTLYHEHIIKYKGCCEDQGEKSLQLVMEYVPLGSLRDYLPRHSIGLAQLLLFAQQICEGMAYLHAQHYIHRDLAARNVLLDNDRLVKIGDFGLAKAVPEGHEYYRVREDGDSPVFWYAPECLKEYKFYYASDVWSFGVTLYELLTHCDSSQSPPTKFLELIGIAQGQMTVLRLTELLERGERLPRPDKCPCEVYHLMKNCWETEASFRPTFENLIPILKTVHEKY
Method in brief: as §1

JAK2 kinase domain (JH1), sequence (O60674 849-1124): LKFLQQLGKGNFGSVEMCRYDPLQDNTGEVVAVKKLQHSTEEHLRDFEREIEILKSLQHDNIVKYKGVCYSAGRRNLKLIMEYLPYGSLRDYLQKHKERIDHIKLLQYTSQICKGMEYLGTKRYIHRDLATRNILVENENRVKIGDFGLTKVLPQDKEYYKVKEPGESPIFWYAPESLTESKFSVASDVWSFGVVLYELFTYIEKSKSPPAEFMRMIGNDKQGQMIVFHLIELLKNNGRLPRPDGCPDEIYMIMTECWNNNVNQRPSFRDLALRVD

Row | SMILES | JAK2 JH1% Inhibition @ 10 μM (JAK2 kinase domain (JH1); 10 μM compound, 10 μM ATP) | Kd [1] [nM] | Tyk2 JH1% Inhibition @ 10 μM (Tyk2 kinase domain (DH1); 10 μM compound, 10 μM ATP) | inhibition at 10 µM (JAK2 kinase domain (JH1); compound at 10 μM, ATP 10 μM) [%] | inhibition at 10 µM (Tyk2 kinase domain (DH1); compound at 10 μM, ATP 10 μM) [%] | inhibition at 10 µM (JAK2 kinase domain (JH1); 10 μM compound, 10 μM ATP) [%] | inhibition at 10 µM (Tyk2 kinase domain (DH1); 10 μM compound, 10 μM ATP) [%]
1 | CNc1cc(Nc2cccn([C@@H]3CCCC[C@@H]3OC)c2=O)nc2c(C(=O)N[C@H]3CC[C@@H]3OC)cnn12 [I-1127] | A (percent inhibition at 10 μM lower than 50) | > 10 | A (percent inhibition at 10 μM lower than 50) | – | – | – | –
2 | CNc1cc(Nc2cccn([C@@H]3CCOC3)c2=O)nc2c(C(N)=O)cnn12 [I-195] | – | 0.2 to 1 | – | < 50 | < 50 | – | –
3 | CNc1cc(Nc2cccnc2O[C@H]2CC[C@H](O)CC2)nc2c(C(=O)NC3CCC3)cnn12 [I-232] | – | < 0.2 | – | < 50 | < 50 | – | –
4 | CNc1cc(Nc2cccn(C3CCCN(C)C3)c2=O)nc2c(C(=O)N[C@@H]3C[C@@H]3F)cnn12 (stereo partly drawn) [I-506] | – | < 0.2 | – | < 50 | < 50 | – | –
5 | CNc1cc(-c2cn(CCN3CCN(C)CC3)c3ncccc23)nc2c(C(=O)N[C@H]3C[C@H]3F)cnn12 [I-617] | – | < 0.2 | – | < 50 | < 50 | – | –
6 | CNc1cc(Nc2cccn(C3CCCOC3)c2=O)nc2c(C(=O)NC3CC3)cnn12 (stereo not drawn) [I-313] | – | < 0.2 | – | < 50 | < 50 | – | –
7 | CNc1cc(Nc2cccnc2OC2CC2)nc2c(C(=O)N[C@@H]3CCC[C@H]3O)cnn12 (stereo in doubt) [I-424, 5-((2-cyclopropoxypyridin-3-yl)amino)-N-(2-hydroxycyclopentyl)-7-(methylamino)pyrazolo[1,5-a]pyrimidine-3-carboxamide] | – | < 0.2 | – | < 50 | < 50 | – | –
8 | CCOc1ccc(-n2cccc(Nc3cc(NC)n4ncc(C(=O)NC5CC5)c4n3)c2=O)nn1 [I-118] | – | 0.2 to 1 | – | < 50 | < 50 | – | –
9 | [2H]C([2H])([2H])Oc1ncccc1Nc1cc(NC)n2ncc(C(=O)NCCC3CCCO3)c2n1 (stereo not drawn) [I-419, 5-((2-(methoxy-d3)pyridin-3-yl)amino)-7-(methylamino)-N-(2-(tetrahydrofuran-2-yl)ethyl)pyrazolo[1,5-a]pyrimidine-3-carboxamide] | – | 1 to 10 | – | < 50 | < 50 | – | –
10 | CNc1cc(Nc2cccn([C@H]3CCCN(CCC#N)C3)c2=O)nc2c(C(=O)N[C@@H]3C[C@@H]3F)cnn12 [I-1040] | – | 0.2 to 1 | – | – | – | < 50 | < 50
11 | CNc1cc(Nc2cccc(N3CC4(CCO4)C3)n2)nc2c(C(=O)N[C@H]3CC[C@H]3O)cnn12 [I-872] | – | < 0.2 | – | – | – | < 50 | < 50
12 | CNc1cc(Nc2cccn([C@H]3CCC[C@@H](OC)C3)c2=O)nc2c(C(=O)N[C@@H]3CC[C@H]3O)cnn12 [I-1123] | – | < 0.2 | – | – | – | < 50 | < 50
13 | CNc1cc(Nc2cccc(C3CCCOC3)n2)nc2c(C(=O)NC3CC3)cnn12 (stereo not drawn) [I-508] | – | 0.2 to 1 | – | < 50 | < 50 | – | –
14 | CNc1cc(Nc2cccn([C@@H]3C[C@H]3F)c2=O)nc2c(C(=O)NC3CC3)cnn12 [I-788] | – | < 0.2 | – | < 50 | < 50 | – | –
15 | CNc1cc(Nc2cccn(-c3cnn(CC4CCOC4)c3)c2=O)nc2c(C(=O)NC3CC3)cnn12 (stereo not drawn) [I-444] | – | < 0.2 | – | < 50 | < 50 | – | –
16 | CNc1cc(Nc2cccc(N3CC(O)C3)n2)nc2c(C(=O)NC3CC3)cnn12 [I-620] | – | < 0.2 | – | < 50 | < 50 | – | –
17 | CNc1cc(Nc2cccn(C3CCN(CC(F)F)CC3)c2=O)nc2c(C(=O)NC3CC3)cnn12 [I-191] | – | < 0.2 | – | < 50 | < 50 | – | –

Row | SMILES | JAK2 JH1% Inhibition @ 10 μM (JAK2 kinase domain (JH1); 10 μM compound, 10 μM ATP) | Kd [1] [nM] | Tyk2 JH1% Inhibition @ 10 μM (Tyk2 kinase domain (DH1); 10 μM compound, 10 μM ATP) | inhibition at 10 µM (JAK2 kinase domain (JH1); compound at 10 μM, ATP 10 μM) [%] | inhibition at 10 µM (Tyk2 kinase domain (DH1); compound at 10 μM, ATP 10 μM) [%] | inhibition at 10 µM (JAK2 kinase domain (JH1); 10 μM compound, 10 μM ATP) [%] | inhibition at 10 µM (Tyk2 kinase domain (DH1); 10 μM compound, 10 μM ATP) [%]
18 | CNc1cc(Nc2cccnc2OC2CC2)nc2c(C(=O)N[C@H]3C[C@H](O)C3)cnn12 [I-320, 5-((2-cyclopropoxypyridin-3-yl)amino)-N-((1r, 3r)-3-hydroxycyclobutyl)-7-(methylamino)pyrazolo[1,5-a]pyrimidine-3-carboxamide] | – | < 0.2 | – | 50 to 70 | < 50 | – | –
19 | COc1ncccc1Nc1cc(NCCCN2CCOCC2)n2ncc(C(=O)NC3CC3)c2n1 [I-376, N-cyclopropyl-5-((2-methoxypyridin-3-yl)amino)-7-((3-morpholinopropyl)amino)pyrazolo[1,5-a]pyrimidine-3-carboxamide] | – | 0.2 to 1 | – | < 50 | < 50 | – | –
20 | CNc1cc(Nc2cccn(CCOC3CC3)c2=O)nc2c(C(=O)N[C@@H]3CC[C@H]3O)cnn12 [I-472, 5-((1-(2-cyclopropoyethyl)-2-oxo-1,2-dihydropyridin-3-yl)amino)-N-(2-hydroxycyclobutyl)-7-(methylamino)pyrazolo[1,5-a]pyrimidine-3-carboxamide] | – | 0.2 to 1 | – | < 50 | < 50 | – | –
21 | CNc1cc(Nc2cccn(C3CCOCC3)c2=O)nc2c(C(=O)N[C@@H]3COC[C@@H]3O)cnn12 [I-674] | – | 0.2 to 1 | – | < 50 | < 50 | – | –
22 | CNc1cc(Nc2cccc(C3CCCCO3)n2)nc2c(C(=O)NC3CC3)cnn12 (stereo not drawn) [I-432, N-cyclopropyl-7-(methylamino)-5-((6-(tetrahydro-2H-pyran-2-yl)pyridin-2-yl)amino)pyrazolo[1,5-a]pyrimidine-3-carboxamide] | – | < 0.2 | – | < 50 | < 50 | – | –
23 | CNc1cc(Nc2cccn(-c3cccnc3C)c2=O)nc2c(C(=O)NC3CC3)cnn12 [I-812] | – | 1 to 10 | – | – | – | < 50 | < 50
24 | CNc1cc(Nc2cccn([C@@H]3CCCOC3)c2=O)nc2c(C(=O)N[C@H]3COC[C@H]3O)cnn12 [I-754] | – | < 0.2 | – | < 50 | < 50 | – | –
25 | CNc1cc(Nc2cccn(-c3ccc(C)nc3)c2=O)nc2c(C(=O)NCC(C)(C)CO)cnn12 [I-767] | – | < 0.2 | – | < 50 | < 50 | – | –
26 | CNc1cc(-c2cn(C(C)C)c3ncccc23)nc2c(C(=O)N[C@H]3C[C@@H]3O)cnn12 (stereo in doubt) [I-733, N-((1 S,2S)-2-hydroxycyclopropyl)-5-(1-isopropyl-1H-pyrrolo[2,3-b]pyridin-3-yl)-7-(methylamino)pyrazolo[1,5-a]pyrimidine-3-carboxamide] | – | < 0.2 | – | < 50 | < 50 | – | –
27 | CNc1cc(-c2cn(C3CCOCC3)c3ncccc23)nc2c(C(=O)N[C@H]3CC[C@@H]3OC)cnn12 [I-1065] | – | < 0.2 | – | – | – | < 50 | < 50
28 | CNc1cc(Nc2cccnc2OC(F)F)nc2c(C(N)=O)cnn12 [I-152] | – | 0.2 to 1 | – | < 50 | < 50 | – | –
29 | Cc1cc(Nc2cc(N)n3ncc(C(N)=O)c3n2)cc(N2CCCC2=O)n1 [I-55] | – | > 10 | – | < 50 | < 50 | – | –
30 | CNc1cc(Nc2cccn([C@@H]3CCCOC3)c2=O)nc2c(C(=O)NCC(C)(C)CO)cnn12 [I-598] | – | < 0.2 | – | < 50 | 50 to 70 | – | –
31 | CNc1cc(-c2cn(CCN3CCOCC3)c3ncccc23)nc2c(C(=O)N[C@H]3COC[C@H]3O)cnn12 [I-856, N-((3S,4S)-4-hydroxytetrahydrofuran-3-yl)-7-(methylamino)-5-(1-(2-morpholinoethyl)-1H-pyrrolo[2,3-b]pyridin-3-yl)pyrazolo[1,5-a]pyrimidine-3-carboxamide] | – | 0.2 to 1 | – | – | – | < 50 | < 50
32 | CNc1cc(Nc2cccn(-c3ccn(C)n3)c2=O)nc2c(C(=O)N[C@H]3C[C@H]3F)cnn12 [I-140] | – | < 0.2 | – | < 50 | < 50 | – | –
33 | CNc1cc(Nc2cccn([C@H]3CC[C@@]4(CCCO4)CC3)c2=O)nc2c(C(=O)NC3CC3)cnn12 [I-910] | – | < 0.2 | – | – | – | < 50 | < 50
34 | CNc1cc(Nc2cccn(CCOC3CC3)c2=O)nc2c(C(=O)NC3CC3)cnn12 [I-453] | – | 0.2 to 1 | – | < 50 | < 50 | – | –
